The values below come from the supplement of paper PMC10307832.

What all share (assay): relative viability (nuclei count vs DMSO), 5 days (fraction); higher = more cells survive
Compound in assay [1]: C1=CC2=C(C=C(C(=C2N=C1)O)N=NC3=CC4=C(C=C3)C=C(C=C4)S(=O)(=O)O)S(=O)(=O)O + COc1cc2c(Oc3ccc(NC(=O)C4(C(=O)Nc5ccc(F)cc5)CC4)cc3F)ccnc2cc1OCCCN1CCOCC1 [Foretinib] (partner 0.25 µM)
An outline of the steps:
(§1)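 For relative viability, nuclei counts in treated wells were divided by those in vehicle wells. Lung cancer cell lines had been pin-tool dosed in 1536-well plates the day after seeding and cultured for 5 days, then fixed and stained in one step (final 0.05% Triton X-100, 1% formaldehyde, 1 ug/ml Hoechst) and imaged at 4×. Doses were one drug alone or a fixed anchor-drug dose plus five library-drug doses (not always all listed) in √10 steps, and values are duplicate-plate medians.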

Compound in assay [2]: C1=CC2=C(C=C(C(=C2N=C1)O)N=NC3=CC4=C(C=C3)C=C(C=C4)S(=O)(=O)O)S(=O)(=O)O + CS(=O)(=O)CCNCc1ccc(-c2ccc3ncnc(Nc4ccc(OCc5cccc(F)c5)c(Cl)c4)c3c2)o1 [Lapatinib] (partner 2 µM)
An outline of the steps:
as §1

Compound in the assay “AT-7519 + OSI-027”: O=C(NC1CCNCC1)c1n[nH]cc1NC(=O)c1c(Cl)cccc1Cl [AT-7519] + COc1cccc2cc(-c3nc([C@H]4CC[C@H](C(=O)O)CC4)n4ncnc(N)c34)[nH]c12 [OSI-027] (partner 0.5 µM)
The procedure, abridged:
as §1

Compound in the assay “AT-7519 + AZD7762”: O=C(NC1CCNCC1)c1n[nH]cc1NC(=O)c1c(Cl)cccc1Cl [AT-7519] + NC(=O)Nc1cc(-c2cccc(F)c2)sc1C(=O)N[C@H]1CCCNC1 [AZD7762] (partner 0.2 µM)
An outline of the steps:
as §1

With RERF-LC-KJ, the relative viability in assay [1] (first compound 0.08 µM) amounted to 1.02; in assay [1] (first compound 0.253 µM) it was 0.835; in assay [1] (first compound 0.8 µM), 0.837; in assay [1] (first compound 2.53 µM), 0.999; in assay [1] (first compound 8 µM) it was 0.844; in assay [2] (first compound 0.08 µM) it was 0.873. Further, the relative viability in assay [2] (first compound 0.253 µM) was 0.851; in assay [2] (first compound 0.8 µM), 0.854; in assay [2] (first compound 2.53 µM) it was 0.835; in assay [2] (first compound 8 µM) it was 0.788; in the assay with AT-7519 + OSI-027 (first compound 0.01 µM), 0.572; in the assay with AT-7519 + OSI-027 (first compound 0.03162 µM) it was 0.53. The relative viability with AT-7519 + OSI-027 (first compound 0.3162 µM) worked out at 0.54; with AT-7519 + OSI-027 (first compound 1 µM), 0.25; with AT-7519 + AZD7762 (first compound 0.01 µM), 0.87; in the assay with AT-7519 + AZD7762 (first compound 0.03162 µM) it was 0.698; in the assay with AT-7519 + AZD7762 (first compound 0.3162 µM), 1.18; with AT-7519 + AZD7762 (first compound 1 µM) it was 1.03.
